In general, Ki refers to a measure of affinity in units of concentration, obtained from inhibition or displacement. The low end stands for a stronger hold on the target, the high end for a looser hold on the target.

Assay [1] has as its target T1, 5-hydroxytryptamine receptor 1A (Rattus norvegicus, UniProt P19327).
T1 sequence (P19327 whole entry): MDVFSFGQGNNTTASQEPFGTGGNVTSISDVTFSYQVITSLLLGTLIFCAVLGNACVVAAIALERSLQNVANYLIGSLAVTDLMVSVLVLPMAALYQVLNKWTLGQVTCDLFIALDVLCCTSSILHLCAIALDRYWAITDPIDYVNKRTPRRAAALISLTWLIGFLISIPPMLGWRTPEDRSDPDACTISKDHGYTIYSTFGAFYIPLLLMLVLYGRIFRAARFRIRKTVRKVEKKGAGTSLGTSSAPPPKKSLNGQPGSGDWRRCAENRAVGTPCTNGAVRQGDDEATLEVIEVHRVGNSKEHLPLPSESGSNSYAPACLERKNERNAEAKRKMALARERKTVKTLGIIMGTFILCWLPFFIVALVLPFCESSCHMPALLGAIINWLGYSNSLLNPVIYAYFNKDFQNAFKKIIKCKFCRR

Assay [2] deals with T2, Alpha-2C adrenergic receptor (Rattus norvegicus, UniProt P22086).
T2 sequence (P22086 whole entry): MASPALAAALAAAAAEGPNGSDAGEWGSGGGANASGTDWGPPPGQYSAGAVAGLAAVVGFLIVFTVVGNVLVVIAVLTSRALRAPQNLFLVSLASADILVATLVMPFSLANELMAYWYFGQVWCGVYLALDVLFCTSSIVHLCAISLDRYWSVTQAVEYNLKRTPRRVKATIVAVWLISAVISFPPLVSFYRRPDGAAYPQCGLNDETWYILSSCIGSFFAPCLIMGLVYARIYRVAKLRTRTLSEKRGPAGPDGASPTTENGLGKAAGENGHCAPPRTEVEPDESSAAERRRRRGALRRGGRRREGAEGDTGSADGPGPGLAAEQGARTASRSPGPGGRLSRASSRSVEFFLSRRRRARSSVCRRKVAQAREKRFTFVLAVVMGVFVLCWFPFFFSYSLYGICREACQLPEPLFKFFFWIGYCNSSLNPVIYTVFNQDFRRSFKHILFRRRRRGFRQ

Regarding `O=C1NCN(c2ccccc2)C12CCN(CCCC(c1ccc(F)cc1)c1ccc(F)cc1)CC2`, the Ki in assay [1] came out at 110 nM; in assay [2], 5000 nM.

As to `O=C1NCCN1CCN1CCC(c2cn(-c3ccc(F)cc3)c3ccc(Cl)cc23)CC1` [1-[2-[4-[5-chloro-1-(4-fluorophenyl)-indol-3-yl]-1-piperidyl]ethyl]imidazolidin-2-one], the affinity in assay [2], expressed as Ki, was 1680 nM.

With `O=C1NCN(c2ccccc2)C12CCN(CC1COc3ccccc3O1)CC2` (stereo not drawn) [8-(2,3-Dihydro-benzo[1,4]dioxin-2-ylmethyl)-1-phenyl-1,3,8-triaza-spiro[4.5]decan-4-one], the Ki in assay [1] is 0.84 nM. That is a sub-nanomolar value.

Consider `Cc1nc2n(c(=O)c1CCN1CCC(c3noc4cc(F)ccc34)CC1)CCCC2O` (stereo not drawn) [9-OH-risperidone], for which the inhibitory constant (Ki) in assay [1] was determined as 380 nM; in assay [2], 17 nM.

As to `NC(=O)C1(N2CCCCC2)CCN(CCCC(=O)c2ccc(F)cc2)CC1` [CAS_1893-33-0], the Ki in assay [2] was determined as 680 nM.

In the case of `CN1CC2c3ccccc3Oc3ccc(Cl)cc3C2C1` (stereo not drawn) [NSC_163091], the Ki in assay [2] was 3.7 nM. This Ki lies about 180-fold lower than the previous one.
